# Patent US5120831A, “Metal-peptide compositions” (ProCyte Corporation, priority 1989, dated 1992)
# Entries after “also recorded” stand apart in the source; their conditions may differ.
# How the values were obtained:
# hair growth [1] = test: Stimulation of hair growth in shaved mice by subdermal/intradermal injection; type: in vivo; conditions: for significant acceleration of hair growth within, following the injection: Example 12: 500 and 1000 micrograms per mouse; for significant acceleration of hair growth within, following injection: injected once; for hair growth (photograph of injected mice): visual, injection sites versus surrounding shaved areas; for % POS. RESPONSE: hair growth at both injection sites = positive
# Description: Increasing doses of glycyl-L-histidyl-L-lysyl-L-valyl-L-phenylalanyl-L-valine:copper(II) in aqueous solution was infiltrated under the skin in two locations. Mice are examined daily for signs of hair growth in the shaved area and at the injection sites. […] Hair growth at both injection sites is considered a positive response.
# Mice were shaved and injected in two locations with an aqueous solution of glycyl-L-histidyl-L-lysine octyl ester:metal ion (GHL octyl:metal ion) at a ratio of peptide to metal ion of 2:1. A dose of 500 micrograms was injected per mouse.
# Hair growth at both injection sites is considered a positive response.
# Mice were shaved and injected in two locations with an aqueous solution of L-lysyl-L-histidyl-glycine octyl ester:copper(II) (LHG Octyl:Cu) and L-lysyl-L-histidyl-glycyl-L-L-valyl-L-phenylalanyl-L-valine:Cu (LGHVFV:Cu) at a ratio of peptide to metal ion of 2:1, and at a dose of 500 and 1000 micrograms per mouse. Hair growth at both injection sites is considered a positive response.
# Mice were shaved and injected intradermally in two locations with various doses of glycyl-L-(3-methyl)-histidyl-L-lysyl-glycyl-L-tryptophan:copper(II). […] Hair growth at both injection sites is considered a positive response.
# Mice were shaved and injected once with glycyl-L-histidyl-L-lysine n-octyl ester:copper(II) at a dose of 500 micrograms per mouse.
# A group of ten mice were shaved and injected once with glycyl-L-histidyl-L-lysine decyl ester:copper(II) at a dose of 500 micrograms per mouse.
# A group of 10 mice were shaved and injected once with glycyl-L-histidyl-L-lysine palmityl ester:copper(II) at a dose of 500 micrograms per mose.
# [2] = tested on: hair follicles and subcutaneous fat layer; test: Histological evaluation of skin biopsies through the area of accelerated hair growth; type: in vivo, mice; conditions: for hair follicles in histological sections / subcutaneous fat layer in histological sections: skin biopsy through the site of injection / area of accelerated hair growth
# Description: Moreover, the surrounding skin contains telogen state follicles resting in the dermal layer, and a gradation of effect is observed as you move closer to the injection site. […] FIG. 4 is a photograph which illustrates the histological section from a mouse injection with glycyl-L-histidyl-L-lysyl-L-valyl-L-phenylalanyl-L-valine:copper(II). The area of injection is on the right side of the photograph. A decrease in hair follicle density and the subcutaneous fat layer is observed at increasing distance from the injection site.
# It is known that the thickness of this fat layer is directly associated with hair growth. This increase in subcutaneous fat is shown by taking a biopsy sample at day 21 through the area and sectioning for histology slides. […] The injected area is on the right with the adjacent uninjected area on the left of the photograph.
# A group of ten mice were shaved and injected once with glycyl-L-histidyl-L-lysine decyl ester:copper(II) at a dose of 500 micrograms per mouse. […]
# hair growth [3] = test: Stimulation of hair growth in shaved mice by daily topical application; type: in vivo; conditions: treated daily; 1% (w/w) in Nonocynol-9 5% / Unibase Cream 94%; peptide to metal ion 2:1
# Description: Hair growth at the treated site is considered a positive response.
# [4] = two locations, peptide to metal ion 2:1
# [5] = dose 0.5 mg, two locations, peptide to metal ion 2:1
# [6] = dose 1.0 mg, two locations, peptide to metal ion 2:1
# [7] = Exp. 1, dose 500 mg, intradermally in two locations
substance,measurement,setting,value
L-lysyl-L-histidyl-glycine octyl ester:copper(II) [LHG-Octyl:Cu],"significant acceleration of hair growth within, following the injection",hair growth [1]; [4],2-3 weeks
same,POSITIVE RESPONSE (No. Positive/Total No.),hair growth [1]; [5],8/8
same,"POSITIVE RESPONSE, percent",hair growth [1]; [5],100%
same,POSITIVE RESPONSE (No. Positive/Total No.),hair growth [1]; [6],5/5
same,"POSITIVE RESPONSE, percent",hair growth [1]; [6],100%
L-lysyl-L-histidyl-glycyl-L-valyl-L-phenylalanyl-L-valine:copper(II) [LHGVFV:Cu],"significant acceleration of hair growth within, following the injection",hair growth [1]; [4],2-3 weeks
same,POSITIVE RESPONSE (No. Positive/Total No.),hair growth [1]; [5],9/10
same,"POSITIVE RESPONSE, percent",hair growth [1]; [5],90%
same,POSITIVE RESPONSE (No. Positive/Total No.),hair growth [1]; [6],5/5
same,"POSITIVE RESPONSE, percent",hair growth [1]; [6],100%
glycyl-L-(3-methyl)-histidyl-L-lysyl-glycyl-L-tryptophan:copper(II),"hair growth noted within, following the injections","hair growth [1]; Example 14: various doses, intradermally in two locations",2-3 weeks
same,POSITIVE RESPONSE (No. Positive/Total No.),hair growth [1]; [7],5/5
same,"POSITIVE RESPONSE, percent",hair growth [1]; [7],100%
same,"POSITIVE RESPONSE, percent","hair growth [1]; Exp. 2, dose 250 mg, intradermally in two locations",100%
same,POSITIVE RESPONSE (No. Positive/Total No.),"hair growth [1]; Exp. 2, intradermally in two locations",5/5
glycyl-L-histidyl-L-lysine decyl ester:copper(II),"significant acceleration of hair growth within, following injection",hair growth [1]; 500 micrograms per mouse,2-3 weeks
same,hair growth (photograph of injected mice),hair growth [1],stimulated hair growth
same,hair shaft units within the subcutaneous fat layer,"[2]; biopsy of area of accelerated growth, 500 micrograms per mouse, injected once",marked proliferation of hair shaft units; also recorded: marked proliferation of hair shafts
same,hair follicles in histological sections,[2],"increased hair growth, fat cell layer and increased hair follicle density"
glycyl-L-histidyl-L-lysine octyl ester:copper(II) [GHL Octyl:Cu(II)],POSITIVE RESPONSE (No. Positive/Total No.),"hair growth [1]; 500 micrograms per mouse, two locations, peptide to metal ion 2:1, hair growth at both sites = positive",4/4
same,"significant acceleration of hair growth within, following injection",hair growth [1]; 500 micrograms per mouse,2-3 weeks
same,increase in the subcutaneous fat layer in the skin near the injection site (measurements),"[2]; biopsy at day 21, 500 micrograms per mouse, injected once, versus adjacent uninjected area",approximately threefold increase
same,number and size of the fat cells,"[2]; biopsy at day 21, injected area versus adjacent uninjected area",obvious increase in both the number and size of the fat cells
same,subcutaneous fat layer in histological sections,[2]; listed as glycyl-L-histidyl-L-lysine n-octyl ester:copper(II),significant increase in the thickness of the subcutaneous fat layer
glycyl-L-histidyl-L-lysine palmityl ester:copper(II),"significant acceleration of hair growth within, following injection",hair growth [1]; 500 micrograms per mouse,2-3 weeks
same,hair follicles in histological sections,[2],large number of developing hair follicles within the subcutaneous fat layer
glycyl-L-histidyl-L-lysyl-L-valyl-L-phenylalanyl-L-valine:copper(II),diameter of circle of growth,hair growth [1]; 0.5 mg injection,approximately 0.5 cm
same,% POS. RESPONSE,"hair growth [1]; dose 0.10 mg/inj., injected under the skin in two locations",86%
same,% POS. RESPONSE,"hair growth [1]; dose 0.25 mg/inj., two locations",89%
same,% POS. RESPONSE,"hair growth [1]; dose 0.50 mg/inj., two locations",89%
same,% POS. RESPONSE,"hair growth [1]; dose 1.00 mg/inj., two locations",95%
same,active hair growth takes place between,hair growth [1]; following injection,14 to 20 days
same,indications of hair growth seen within,hair growth [1]; following injection,≤ 10 days
same,maximum effect seen by,hair growth [1]; following injection,≤ 28 days
same,stimulated hair growth at and around the injection site by days,"hair growth [1]; increasing doses, two locations, shaved on day 1",14 to 21 days
same,hair growth at 25 days from the date of injection (photograph),"hair growth [1]; single injection site, versus control mouse injected with saline",accelerated hair growth
same,"positive response, % of the mice injected","hair growth [1]; summary of series of experiments of Table 1, no response with saline",80-90%
same,hair growth (photograph of injected mice),hair growth [1],accelerated hair growth at two injection sites
same,mice showing accelerated hair growth in the area of topical application (number),hair growth [3],Four of the five
same,mice showing accelerated hair growth in the area of topical application (percent),hair growth [3],80%
same,hair follicles in histological sections,[2],anagen state follicles
same,subcutaneous fat layer in histological sections,[2],thickening of the fat layer
